From patent publication US11478479B2, “Dosing with an azolopyrimidine compound” (ARCUS BIOSCIENCES, INC., priority 2018, dated 2022)

Key:
[1] = Single ascending dose (SAD) pharmacokinetics, Compound I in plasma; assay type: in vivo, human
Source text: The SAD part consists of 5 groups of 8 healthy young male and female participants, gender balanced to the extent possible, receiving a single oral dose in Groups 1 to 4 or 2 doses in Group 5 of Compound I or placebo (randomized 3:1, active vs placebo, respectively). All participants in the SAD portion of the study must be fasting prior to receiving Compound I. All groups will be evaluated based on pharmacokinetic (PK), safety and tolerability prior to escalation to the next highest group or starting the MAD portion of the study.
For Groups 1 to 4, the study drug will be administered with the participant in the upright position. Study drug will be administered to participants between 08:00 and 9:00 hours in the morning. Before the morning dose, participants will be fasted overnight for at least 10 hours following a light supper on the evening before. Within a period, dosing should be at the same time each day 15 minutes. The study drug will be swallowed together with 240 mL tap water. The study drug should not be chewed. Fasting will continue for a period of 4 hours after drug administration. During fasting, no fluids are allowed except water; however, water is not allowed from 2 hours pre-dose until 1 hour post-dose. When not fasting, non-caffeinated fluids are allowed ad libitum. […]

[2] = target: T1, A2aR (Homo sapiens, UniProt P29274); assay: pCREB (marker for A2R inhibition) by flow cytometry in blood CD8+ T cells stimulated ex vivo with 5 μM NECA
T1 construct: all subjects responded to 5 μM NECA by increasing the levels of pCREB in their blood CD8+ T cells; endogenous in cells; host or cells: blood CD8+ T cells of trial subjects (ex vivo)
Source text: The assessment of pCREB (a marker for A2R inhibition) by flow cytometry will be conducted during the study.

[3] = Safety and tolerability in healthy volunteers; assay type: in vivo, human; details: doses of up to 150 mg
Source text: Safety and tolerability assessments will consist of adverse events (AEs), clinical laboratory, vital signs, 12-lead ECG, telemetry, physical examination, Bond and Lader Visual Analog Scale (VAS) of Mood and Alertness, and Digit Symbol Substitution Test (DSST). Assessments will be performed in accordance with the schedules of assessments.

T1 sequence (P29274 whole entry): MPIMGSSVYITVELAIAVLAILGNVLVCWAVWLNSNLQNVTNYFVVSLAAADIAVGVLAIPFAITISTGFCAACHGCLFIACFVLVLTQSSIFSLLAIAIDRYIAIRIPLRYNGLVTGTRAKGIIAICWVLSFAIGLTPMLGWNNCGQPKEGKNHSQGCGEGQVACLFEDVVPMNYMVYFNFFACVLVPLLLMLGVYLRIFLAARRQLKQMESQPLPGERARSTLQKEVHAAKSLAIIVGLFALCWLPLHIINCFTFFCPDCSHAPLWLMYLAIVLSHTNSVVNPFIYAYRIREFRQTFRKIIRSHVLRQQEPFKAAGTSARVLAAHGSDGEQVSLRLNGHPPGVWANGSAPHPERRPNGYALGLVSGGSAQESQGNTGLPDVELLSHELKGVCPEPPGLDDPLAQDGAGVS

Cc1c(C#N)cccc1-c1cc(-c2cn(Cc3cccc(C(C)(C)O)n3)nn2)nc(N)n1 [Compound I, 3-(2-amino-6-(1-((6-(2-hydroxypropan-2-yl)pyridin-2-yl)methyl)-1H-1,2,3-triazol-4-yl)pyrimidin-4-yl)-2-methylbenzonitrile]
half-life ([1]; both sexes, human, plasma, healthy volunteers, following a single oral dose): ~20 h | plasma levels of Compound I with increased doses ([1]; healthy volunteers, 10, 25, 75 and 150 mg, FIG. 1): dose proportional increases | inhibition at 75 mg ([2]; 75 mg once daily, in the presence of 5 μM NECA, projected from single-dose PK profiles, FIG. 2, read-out: expected inhibition of A2R at steady-state plasma levels): 90% | inhibition of NECA-mediated activation of A2aR ([2]; 150 mg, 24 hours after dosing, 5 μM NECA): approximately 90% | pCREB response relative to the response seen pre-dose ([2]; 150 mg, 24 hours after dosing, blood CD8+ T cells, 5 μM NECA, FIG. 3): approximately 10% | pCREB activation signal in response to NECA ([2]; 150 mg, two hours after dosing, blood CD8+ T cells, 5 μM NECA, FIG. 3): no detectable increase in pCREB levels | safety issues [3]: no safety issues have been identified
